Reference: US20080207450A1, “Method of Substantially Preventing or Inhibiting Summer Bentgrass Decline” (priority 2007, published 2008)

Tested on: Creeping bentgrass
Assay: Outdoor bentgrass bed exposed to elevated atmospheric carbon dioxide over summer; visual quality and root depth
Assay type: in vivo, Agrostis stolonifera
Settings: about 700 ppm carbon dioxide from daylight until dark, July and August
Experimental: In the fall, the inventors established an outdoor bed of bentgrass in Lincoln Parish, La. This region has an average daily high temperature in July and August of 93° F. (www.enlou.com/econ/lincoln_econ.htm). The bed of bentgrass established by the inventors was a randomized block comprising three varieties of Creeping bentgrass: Penn A1 (Agrostis stolonifera ‘Penn A-1’), Penn A2, (Agrostis stolonifera ‘Penn A-2’) and Penn A4 (Agrostis stolonifera ‘Penn A-4’). The bentgrass bed was maintained over the winter. During the following July and August, the inventors constructed a conduit system through which carbon dioxide was pumped over a portion of the bentgrass bed (test zone). The conduit system comprised a plurality of hollow PVC pipes, each pipe having an approximate length of 72 inches and an approximate diameter of ¾ of an inch. Several of the pipes were affixed to each other to form the perimeter of a support platform having a rectangular shape. The remaining pipes were arranged in a parallel fashion and affixed within the support platform. […] The carbon dioxide concentrations in both zones were monitored via a standard, commercially available gas analyzer. At the end of August, both the treated and non-treated areas of the bentgrass were assayed visually for quality and also measured for root-depth.

How did the “length of sample root” value (sample root from test zone, measured at end of August) turn out when `O=C=O` [carbon dioxide] was run?
The value was “approximately 10.75 inches”.

What about the “visual quality of bentgrass” value (test zone, Lincoln Parish, La., assayed at end of August, varieties Penn A1, A2, A4) of the same compound?
Its value is “did not experience a loss in quality”.
